Values quoted from earlier work, collected in patent US9044449B2, “X-ray contrast media compositions and methods of using the same to treat, reduce or delay the onset of CNS inflammation and inflammation associated conditions” (3E THERAPEUTICS CORPORATION, priority 2011, dated 2015).
Residues, ends and D or L forms follow the SMILES beside them.

Tests used:
TNF-alpha = settings: in vitro
[1] = biological target: angiotensin converting enzyme (ACE) (Homo sapiens, UniProt P12821); settings: in vitro; FIG. 2 reproduced from Lasser et al. 1990
mast cell degranulation = settings: in vitro; immunological and non-immunological stimuli
[2] = tested on: allergen induced nasal obstruction; settings: used as a nasal spray, in vivo

angiotensin converting enzyme (ACE), sequence (P12821 30-1306, species assumed): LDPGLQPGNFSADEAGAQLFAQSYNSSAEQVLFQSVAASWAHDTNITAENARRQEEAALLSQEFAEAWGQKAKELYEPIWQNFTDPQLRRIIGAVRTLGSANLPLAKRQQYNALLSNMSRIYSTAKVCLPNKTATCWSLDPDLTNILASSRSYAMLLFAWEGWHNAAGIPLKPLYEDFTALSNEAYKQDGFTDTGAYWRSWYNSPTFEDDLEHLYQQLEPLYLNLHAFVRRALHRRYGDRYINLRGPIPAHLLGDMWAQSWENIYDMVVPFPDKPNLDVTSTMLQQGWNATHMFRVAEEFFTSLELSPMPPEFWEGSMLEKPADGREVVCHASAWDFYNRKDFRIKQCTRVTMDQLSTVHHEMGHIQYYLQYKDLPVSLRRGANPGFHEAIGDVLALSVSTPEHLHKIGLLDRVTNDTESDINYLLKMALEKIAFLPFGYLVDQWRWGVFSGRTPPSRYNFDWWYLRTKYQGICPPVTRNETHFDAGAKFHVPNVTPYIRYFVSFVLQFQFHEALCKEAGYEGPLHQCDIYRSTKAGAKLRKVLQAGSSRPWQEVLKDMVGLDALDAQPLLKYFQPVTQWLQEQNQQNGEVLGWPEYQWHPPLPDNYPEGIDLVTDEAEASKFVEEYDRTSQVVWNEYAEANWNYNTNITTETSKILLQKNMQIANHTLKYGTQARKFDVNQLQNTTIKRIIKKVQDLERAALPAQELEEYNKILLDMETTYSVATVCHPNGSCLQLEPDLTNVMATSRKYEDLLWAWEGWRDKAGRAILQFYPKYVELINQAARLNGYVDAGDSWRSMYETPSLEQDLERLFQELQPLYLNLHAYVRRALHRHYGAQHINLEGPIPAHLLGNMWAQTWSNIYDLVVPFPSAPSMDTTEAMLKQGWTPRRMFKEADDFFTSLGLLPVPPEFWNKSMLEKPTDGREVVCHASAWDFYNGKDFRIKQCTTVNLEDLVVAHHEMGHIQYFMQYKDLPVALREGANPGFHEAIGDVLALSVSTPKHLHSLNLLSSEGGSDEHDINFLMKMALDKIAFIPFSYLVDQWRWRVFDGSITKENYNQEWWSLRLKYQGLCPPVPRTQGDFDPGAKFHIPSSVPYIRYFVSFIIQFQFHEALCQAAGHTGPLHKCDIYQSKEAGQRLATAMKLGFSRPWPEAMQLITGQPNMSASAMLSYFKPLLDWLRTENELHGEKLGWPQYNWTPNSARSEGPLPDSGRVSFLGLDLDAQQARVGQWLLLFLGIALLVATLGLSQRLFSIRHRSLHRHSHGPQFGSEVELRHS

CCCc1c2oc(C(=O)[O-])cc(=O)c2cc2c(=O)cc(C(=O)[O-])n(CC)c12.[Na+].[Na+] [nedocrimal sodium]
inhibition of TNF-alpha (TNF-alpha): inhibited TNF-alpha in vitro

C[C@H](O)C(=O)Nc1c(I)c(C(=O)NC(CO)CO)c(I)c(C(=O)NC(CO)CO)c1I [purified iopamidol, iopamidol]
inhibition of ACE compared with commercial iopamidol (contains chelator) [1]: diminishes the inhibition ACE significantly

CC(=O)N[C@@H](CC(=O)[O-])C(=O)N[C@@H](CCC(=O)[O-])C(=O)O.[Mg+2] [magnesium salt of n-acetyl aspartyl glutamic acid] (Ac-Asp-Glu-OH)
inhibition of mast cell degranulation (mast cell degranulation): inhibit mast cell degranulation
effect on allergen induced nasal obstruction [2]: reduce allergen induced nasal obstruction

O=C(O)c1cc(=O)c2c(OCC(O)COc3cccc4oc(C(=O)O)cc(=O)c34)cccc2o1 [Sodium cromoglycate]
inhibition of TNF-alpha (TNF-alpha): inhibited TNF-alpha in vitro
